From publication PMC9967108 (Viruses, 2023)

Assays:
[1] = target: main protease (Severe acute respiratory syndrome coronavirus 2, UniProt P0DTD1); experiment: Dissociation constant (KD) test by fluorescence titration; type: binding, SARS-CoV-2; settings: inhibitor titration, intrinsic fluorescence, Scatchard plot
[2] = target: SARS-CoV-2 Mpro (Severe acute respiratory syndrome coronavirus 2, UniProt P0DTD1); experiment: Mpro protease activity assay (IC50 test, fluorogenic substrate)

Cc1ccc(CNC(=O)C2CC(n3cnnn3)CN2Cc2ccc(OCc3ccccc3)cc2)cc1 (stereo not drawn) [CB-25]
Kd [1]: 10.8 ± 1.32 µM | IC50 [2]: 22.7 µM

Cc1cc(CNC(=O)Nn2cnc3ccccc32)ccc1F [CP-1]
Kd [1]: 5.08 ± 0.38 µM | IC50 [2]: 18.5 µM

Cc1ccc(C2CC(c3cccs3)=NN2C(=O)CSc2nnc(CNC(=O)c3ccco3)n2-c2cccc(Cl)c2)cc1 (stereo not drawn) [LC24-20]
Kd [1]: 20 ± 1.27 µM | IC50 [2]: 32.9 µM
